Tests used:
Experiment in all cases: relative viability (nuclei count vs DMSO), 5 days (fraction); higher = more cells survive
HOP-62 = test system: HOP-62
In short: (§1)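 Lung cancer cell lines were pin-tool dosed in 1536-well plates on the day after seeding, with either a lone drug or a fixed anchor-drug dose plus five library-drug doses (not always all listed) in √10 steps. Nuclei were counted on 4× images after 5 days. Relative viability is the ratio of treated-well to vehicle-well nuclei counts, with each value a median of duplicate plates.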

NCI-H460 = test system: NCI-H460
In short: as §1

SK-LU-1 = test system: SK-LU-1
In short: as §1

HCC-366 = test system: HCC-366
In short: as §1

NCI-H1792 = test system: NCI-H1792
In short: as §1

EMC-BAC-2 = test system: EMC-BAC-2
In short: as §1

HCC-827 = test system: HCC-827
In short: as §1

SW 1573 = test system: SW 1573
In short: as §1

NCI-H2009 = test system: NCI-H2009
In short: as §1

NCI-H1755 = test system: NCI-H1755
In short: as §1

NCI-H727 = test system: NCI-H727
In short: as §1

NCI-H1395 = test system: NCI-H1395
In short: as §1

NCI-H2228 = test system: NCI-H2228
In short: as §1

NCI-H1437 = test system: NCI-H1437
In short: as §1

HARA = test system: HARA
In short: as §1

COR-L 105 = test system: COR-L 105
In short: as §1

A-427 = test system: A-427
In short: as §1

NCI-H23 = test system: NCI-H23
In short: as §1

CAL-12T = test system: CAL-12T
In short: as §1

NCI-H1915 = test system: NCI-H1915
In short: as §1

With `O=c1cc(-c2cccc3c2Sc2ccccc2S3)oc(N2CCOCC2)c1` + CC1(C)CCC(c2ccc(Cl)cc2)=C(CN2CCN(c3ccc(C(=O)NS(=O)(=O)c4ccc(N[C@H](CCN5CCOCC5)CSc5ccccc5)c(S(=O)(=O)C(F)(F)F)c4)cc3)CC2)C1 [Navitoclax] (partner 0.5 µM) the relative viability (HOP-62; first compound 0.08 µM) was 1.09, the relative viability (HOP-62; first compound 0.253 µM) was 1.43 and the relative viability (HOP-62; first compound 0.8 µM) was 1.21. The relative viability (HOP-62; first compound 2.53 µM) was 0.902, the relative viability (HOP-62; first compound 8 µM) was 1.28 and the relative viability (NCI-H460; first compound 0.08 µM) was 1.24. The relative viability (NCI-H460; first compound 0.8 µM) was 1.42, the relative viability (NCI-H460; first compound 2.53 µM) was 1.23 and the relative viability (SK-LU-1; first compound 0.08 µM) was 0.684. The relative viability (SK-LU-1; first compound 0.253 µM) was 0.924, the relative viability (SK-LU-1; first compound 0.8 µM) was 0.787 and the relative viability (SK-LU-1; first compound 2.53 µM) was 1.02. For the same molecule, the relative viability (SK-LU-1; first compound 8 µM) was 1.09, the relative viability (HCC-366; first compound 0.08 µM) was 0.987 and the relative viability (HCC-366; first compound 0.253 µM) was 1.19. The relative viability (HCC-366; first compound 0.8 µM) was 1.07, the relative viability (HCC-366; first compound 2.53 µM) was 0.98 and the relative viability (HCC-366; first compound 8 µM) was 0.996. The relative viability (NCI-H1792; first compound 0.253 µM) was 0.761, the relative viability (NCI-H1792; first compound 0.8 µM) was 0.471 and the relative viability (NCI-H1792; first compound 2.53 µM) was 0.555. It also gave a relative viability (NCI-H1792; first compound 8 µM) of 0.689, a relative viability (EMC-BAC-2; first compound 0.08 µM) of 1.3 and a relative viability (EMC-BAC-2; first compound 0.253 µM) of 1.41. The relative viability (EMC-BAC-2; first compound 0.8 µM) was 1.37, the relative viability (EMC-BAC-2; first compound 2.53 µM) was 1.2 and the relative viability (EMC-BAC-2; first compound 8 µM) was 1.35. It also gave a relative viability (HCC-827; first compound 0.08 µM) of 1.05, a relative viability (HCC-827; first compound 0.253 µM) of 1.06 and a relative viability (HCC-827; first compound 0.8 µM) of 1.08. The relative viability (HCC-827; first compound 2.53 µM) was 0.998, the relative viability (HCC-827; first compound 8 µM) was 1.07 and the relative viability (SW 1573; first compound 0.08 µM) was 0.999. The relative viability (SW 1573; first compound 0.253 µM) was 1.14, the relative viability (SW 1573; first compound 0.8 µM) was 1.04 and the relative viability (SW 1573; first compound 2.53 µM) was 1.12. The relative viability (SW 1573; first compound 8 µM) was 1.17, the relative viability (NCI-H2009; first compound 0.08 µM) was 1.22 and the relative viability (NCI-H2009; first compound 0.253 µM) was 1.2. The relative viability (NCI-H2009; first compound 0.8 µM) was 1.21, the relative viability (NCI-H2009; first compound 2.53 µM) was 1.05 and the relative viability (NCI-H2009; first compound 8 µM) was 1.11. The relative viability (NCI-H1755; first compound 0.08 µM) was 1.05, the relative viability (NCI-H1755; first compound 0.253 µM) was 1.13 and the relative viability (NCI-H1755; first compound 0.8 µM) was 0.992. The relative viability (NCI-H1755; first compound 2.53 µM) was 0.988, the relative viability (NCI-H1755; first compound 8 µM) was 0.939 and the relative viability (NCI-H727; first compound 0.253 µM) was 0.356. For the same molecule, the relative viability (NCI-H727; first compound 2.53 µM) was 0.369, the relative viability (NCI-H727; first compound 8 µM) was 0.494 and the relative viability (NCI-H1395; first compound 0.08 µM) was 1.14. For the same molecule, the relative viability (NCI-H1395; first compound 0.253 µM) was 1.1, the relative viability (NCI-H1395; first compound 0.8 µM) was 1.12 and the relative viability (NCI-H1395; first compound 2.53 µM) was 1.13. The relative viability (NCI-H1395; first compound 8 µM) was 1.03, the relative viability (NCI-H2228; first compound 0.08 µM) was 1.17 and the relative viability (NCI-H2228; first compound 0.253 µM) was 0.902. It also gave a relative viability (NCI-H2228; first compound 0.8 µM) of 0.818, a relative viability (NCI-H2228; first compound 2.53 µM) of 0.87 and a relative viability (NCI-H2228; first compound 8 µM) of 0.852. It also gave a relative viability (NCI-H1437; first compound 0.08 µM) of 1.08, a relative viability (NCI-H1437; first compound 0.253 µM) of 1.58 and a relative viability (NCI-H1437; first compound 0.8 µM) of 1.09. For the same molecule, the relative viability (NCI-H1437; first compound 2.53 µM) was 1.11, the relative viability (NCI-H1437; first compound 8 µM) was 1.39 and the relative viability (HARA; first compound 0.08 µM) was 1.16. For the same molecule, the relative viability (HARA; first compound 0.253 µM) was 1.36, the relative viability (HARA; first compound 0.8 µM) was 1.01 and the relative viability (HARA; first compound 2.53 µM) was 1.11. It also gave a relative viability (HARA; first compound 8 µM) of 1.2, a relative viability (COR-L 105; first compound 0.08 µM) of 0.649 and a relative viability (COR-L 105; first compound 0.253 µM) of 0.849. For the same molecule, the relative viability (COR-L 105; first compound 0.8 µM) was 0.678, the relative viability (COR-L 105; first compound 2.53 µM) was 0.642 and the relative viability (COR-L 105; first compound 8 µM) was 0.993. The relative viability (A-427; first compound 0.08 µM) was 0.962, the relative viability (A-427; first compound 0.253 µM) was 0.909 and the relative viability (A-427; first compound 0.8 µM) was 1.07. The relative viability (A-427; first compound 2.53 µM) was 0.906, the relative viability (A-427; first compound 8 µM) was 0.934 and the relative viability (NCI-H23; first compound 0.08 µM) was 0.829. The relative viability (NCI-H23; first compound 0.253 µM) was 1.01, the relative viability (NCI-H23; first compound 0.8 µM) was 0.879 and the relative viability (NCI-H23; first compound 2.53 µM) was 0.725. The relative viability (NCI-H23; first compound 8 µM) was 0.884, the relative viability (CAL-12T; first compound 0.08 µM) was 1.16 and the relative viability (CAL-12T; first compound 0.253 µM) was 1.26. For the same molecule, the relative viability (CAL-12T; first compound 0.8 µM) was 1.48, the relative viability (CAL-12T; first compound 2.53 µM) was 1.2 and the relative viability (CAL-12T; first compound 8 µM) was 1.31. The relative viability (NCI-H1915; first compound 0.08 µM) was 0.776, the relative viability (NCI-H1915; first compound 0.253 µM) was 0.847 and the relative viability (NCI-H1915; first compound 0.8 µM) was 0.795. For the same molecule, the relative viability (NCI-H1915; first compound 2.53 µM) was 0.787 and the relative viability (NCI-H1915; first compound 8 µM) was 0.872.

— the supplement of paper PMC10307832
